Legend:
[1] = system: BRCA1-mutated HCC1395 cells; assay: Proliferation inhibitory test of BRCA1-mutated HCC1395 cells (CCK-8); format: cell-based; settings: Homo sapiens, 120 h, 5 days, read-out: IC50 (nM), inhibitory activity against BRCA1-mutated HCC1395 cells
Protocol: (§1) CCK-8 was used to measure the content of mitochondrial dehydrogenase in cells at different drug concentrations, and the luminescence intensity was used to reflect the cell activity. The IC50 values of different compounds on BRCA1-mutated HCC1395 cells were calculated using the survival rate, and the proliferation inhibitory effect of the compounds of the present disclosure on BRCA1-mutated HCC1395 cells was studied to evaluate the anti-tumor efficacy of the test compounds at the cellular level.
(§2) On Day −1, the cells were inoculated into the 96-well cell culture plate at a fixed cell density and then placed in the 5% CO2 cell incubator for culture overnight at 37° C.
(§3) On Day 0, the compound to be tested was prepared into a 10 mM stock solution and diluted into 9 concentration points at the concentration of 1,000 nM, 300 nM, 100 nM, 30 nM, 10 nM, 3 nM, 1 nM, 0.3 nM and 0.1 nM in two duplicated wells. A fixed volume of the diluted compound was added to the 96-well cell culture plate and then placed in the 5% CO2 cell incubator for culture at 37° C. for 5 days.
(§4) On Day 5, a fixed volume of CCK-8 was added to the 96-well cell culture plate and incubated in the 5% CO2 cell incubator at 37° C. for 1.5 h, and the plate was read by a chemiluminescence module of the multifunctional microplate reader.
(§5) With the logarithmic value of the concentration as an X axis and the survival percentage as a Y axis, a dose-effect curve was fitted by using a log(inhibitor) vs. response-Variable slop (Four parameters) formula of the analysis software Graphpad Prism 9, thereby obtaining the IC50 value of the anti-proliferation inhibitory activity of each compound against BRCA1-mutated HCC1395 cells.

[2] = system: BRCA1-mutated MDA-MB-436 cells; assay: Proliferation inhibitory test of BRCA1-mutated MDA-MB-436 cells (CCK-8); format: cell-based; settings: Homo sapiens, 120 h, 5 days, read-out: IC50 (nM), inhibitory activity against BRCA1-mutated MDA-MB-436 cells
Protocol: as §1, with “MDA-MB-436” for “HCC1395”
as §2, §3, §4
as §5, with “MDA-MB-436” for “HCC1395”

[3] = Study on pharmacokinetics of rats (oral gavage, plasma LC-MS/MS); format: in vivo; settings: female SD rats; for AUC(0-t) / Cmax / half-life: rat
Protocol: With SD rats as test animals, the plasma concentration in the plasma of rats at different time points after oral administration of the compounds of the present application was determined by an LC-MS/MS method. Pharmacokinetic parameters of the compounds of the present application in rats were obtained to study pharmacokinetic characteristics.
SD rats, female, body weight 180-220 g, 3 rats per group. After being purchased, the animals were fed in an animal house for an adaptation period of at least 3 days and then used for testing after passing quarantine.
3.1. Grouping: The SD rats were randomly grouped according to Table 4, which had no statistical difference in the body weight between groups after grouping.
3.2. Vehicle: 10% DMSO and 90% (20% SBE-β-CD in saline).
According to Table 4, each compound was prepared into a clear solution with the vehicle, respectively, and each group was administered by gavage with the corresponding test drug. Before administration, and at 15 min, 30 min, 1 h, 2 h, 4 h, 6 h, 8 h and 24 h after the administration, a fixed volume of blood was collected through sinuses jugularis, placed in an EDTA-K2 anticoagulant tube, and centrifuged at 4,000 rpm for 10 min to separate the plasma in a centrifuge tube. The plasma was frozen in a refrigerator at −80° C.
The plasma stored at −80° C. at each time point was taken out, and a fixed volume of acetonitrile was added thereto. After being vortexed at 1,500 rpm for 2 min, it was centrifuged for 15 min (3,500 r/min). A fixed volume of solution supernatant was taken for LC-MS/MS analysis.
The pharmacokinetic behaviors of the test compounds were fitted with a non-compartmental model, and the main pharmacokinetic parameters were calculated using DAS3.31 software.

| Structure (SMILES) | IC50 [1] | IC50 [2] | further results |
| --- | --- | --- | --- |
| CCc1cc2ncc(CN3CCN(c4ccc(C(=O)NC)nc4)CC3)cc2[nH]c1=O [AZD5305, reference compound] | 1.76 nM | 0.67 nM |  |
| CNC(=O)c1ccc(N2CCN(Cc3ccc4nc(C)c(=O)[nH]c4c3F)CC2)c(F)n1 [AZD9574, reference compound] | 9.93 nM | 21.8 nM | Cl_F_obs ([3]; po. 3 mg/kg): 0.37 L/h/kg; AUC(0-t) ([3]; po. 3 mg/kg): 6460 ng·h/mL; Cmax ([3]; po. 3 mg/kg): 702 ng/mL; half-life ([3]; po. 3 mg/kg): 364 min |
| CNC(=O)c1ccc(N2CCN(Cc3cc(F)c4nc(C)c(=O)[nH]c4c3)CC2)c(C)n1 [Compound 6, 5-(4-((8-fluoro-2-methyl-3-oxo-3,4-dihydroquinoxalin-6-yl)methyl)piperazin-1-yl)-N,6-dimethylpicolinamide] | 2.45 nM | 2.06 nM | Cl_F_obs ([3]; po. 10 mg/kg): 0.13 L/h/kg; AUC(0-t) ([3]; po. 10 mg/kg): 72600 ng·h/mL; Cmax ([3]; po. 10 mg/kg): 11300 ng/mL; half-life ([3]; po. 10 mg/kg): 364 min |
| CNC(=O)c1ccc(N2CCN(Cc3cc(F)c4nc(C)c(=O)[nH]c4c3)CC2)c(Cl)n1 [Compound 7, 6-chloro-5-(4-((8-fluoro-2-methyl-3-oxo-3,4-dihydroquinoxalin-6-yl)methyl)piperazin-1-yl)-N-methylpicolinamide] |  | 2.31 nM |  |
| CNC(=O)c1ccc(N2CCN(Cc3cc4[nH]c(=O)c(C)nc4c(F)c3F)CC2)cn1 [Compound 8, 5-(4-((7,8-difluoro-2-methyl-3-oxo-3,4-dihydroquinoxalin-6-yl)methyl)piperazin-1-yl)-N-methylpicolinamide] |  | 11.1 nM |  |
| CNC(=O)c1ccc(N2CCN(Cc3cc4[nH]c(=O)c(C)nc4c(F)c3F)CC2)c(C)n1 [Compound 9, 5-(4-((7,8-difluoro-2-methyl-3-oxo-3,4-dihydroquinoxalin-6-yl)methyl)piperazin-1-yl)-N,6-dimethylpicolinamide] | 2.29 nM | 5.84 nM | Cl_F_obs ([3]; po. 10 mg/kg): 0.03 L/h/kg; AUC(0-t) ([3]; po. 10 mg/kg): 340000 ng·h/mL; Cmax ([3]; po. 10 mg/kg): 31900 ng/mL; half-life ([3]; po. 10 mg/kg): 464 min |
| CNC(=O)c1ccc(N2CCN(Cc3cc(C)c4nc(C)c(=O)[nH]c4c3)CC2)c(C)n1 [Compound 10, 5-(4-((2,8-dimethyl-3-oxo-3,4-dihydroquinoxalin-6-yl)methyl)piperazin-1-yl)-N,6-dimethylpicolinamide] |  | 3.63 nM |  |
| Cc1nc2c(C)cc(CN3CCN(c4ccc(C#N)c(F)c4)CC3)cc2[nH]c1=O [Compound 19, 4-(4-((2,8-dimethyl-3-oxo-3,4-dihydroquinoxalin-6-yl)methyl)piperazin-1-yl)-2-fluorobenzonitrile] |  | 8.31 nM |  |
| COCCNC(=O)c1ccc(N2CCN(Cc3cc(C)c4nc(C)c(=O)[nH]c4c3)CC2)c(C)n1 [Compound 22, 5-(4-((2,8-dimethyl-3-oxo-3,4-dihydroquinoxalin-6-yl)methyl)piperazin-1-yl)-N-(2-methoxyethyl)-6-methylpicolinamide] |  | 6.95 nM |  |
| Cc1nc(C(=O)NCC(F)F)ccc1N1CCN(Cc2cc(F)c3nc(C)c(=O)[nH]c3c2)CC1 [Compound 28, N-(2,2-difluoroethyl)-5-(4-((8-fluoro-2-methyl-3-oxo-3,4-dihydroquinoxalin-6-yl)methyl)piperazin-1-yl)-6-methylpicolinamide] | 2.03 nM | 4.53 nM |  |

The next lines start with results.

| IC50 [1] | IC50 [2] | Structure (SMILES) | further results |
| --- | --- | --- | --- |
|  | 9.83 nM | Cc1nc(C(=O)NCCF)ccc1N1CCN(Cc2cc(F)c3nc(C)c(=O)[nH]c3c2)CC1 [Compound 29, 5-(4-((8-fluoro-2-methyl-3-oxo-3,4-dihydroquinoxalin-6-yl)methyl)piperazin-1-yl)-N-(2-fluoroethyl)-6-methylpicolinamide] |  |
|  | 5.94 nM | CCc1nc2c(F)cc(CN3CCN(c4ccc(C(=O)NCCF)nc4C)CC3)cc2[nH]c1=O [Compound 30, 5-(4-((2-ethyl-8-fluoro-3-oxo-3,4-dihydroquinoxalin-6-yl)methyl)piperazin-1-yl)-N-(2-fluoroethyl)-6-methylpicolinamide] |  |
|  | 8.77 nM | CCc1nc2c(F)cc(CN3CCN(c4ccc(C(=O)NCCO)nc4C)CC3)cc2[nH]c1=O [Compound 31, 5-(4-((2-ethyl-8-fluoro-3-oxo-3,4-dihydroquinoxalin-6-yl)methyl)piperazin-1-yl)-N-(2-hydroxyethyl)-6-methylpicolinamide] |  |
| 1.82 nM | 5.24 nM | CCc1nc2c(F)cc(CN3CCN(c4ccc(C(=O)NC)nc4C)CC3)cc2[nH]c1=O [Compound 32, 5-(4-((2-ethyl-8-fluoro-3-oxo-3,4-dihydroquinoxalin-6-yl)methyl)piperazin-1-yl)-N,6-dimethylpicolinamide] | Cl_F_obs ([3]; po. 3 mg/kg): 0.05 L/h/kg; AUC(0-t) ([3]; po. 3 mg/kg): 50600 ng·h/mL; Cmax ([3]; po. 3 mg/kg): 7180 ng/mL; half-life ([3]; po. 3 mg/kg): 443 min |
|  | 6.91 nM | CCc1nc2c(F)cc(CN3CCN(c4ccc(C(=O)NCC5COC5)nc4C)CC3)cc2[nH]c1=O [Compound 33, 5-(4-((2-ethyl-8-fluoro-3-oxo-3,4-dihydroquinoxalin-6-yl)methyl)piperazin-1-yl)-6-methyl-N-(oxetan-3-ylmethyl)picolinamide] |  |
|  | 5.87 nM | CCc1nc2c(F)cc(CN3CCN(c4ccc(C(=O)NCCOC)nc4C)CC3)cc2[nH]c1=O [Compound 34, 5-(4-((2-ethyl-8-fluoro-3-oxo-3,4-dihydroquinoxalin-6-yl)methyl)piperazin-1-yl)-N-(2-methoxyethyl)-6-methylpicolinamide] | Cl_F_obs ([3]; po. 3 mg/kg): 0.18 L/h/kg; AUC(0-t) ([3]; po. 3 mg/kg): 17000 ng·h/mL; Cmax ([3]; po. 3 mg/kg): 3230 ng/mL; half-life ([3]; po. 3 mg/kg): 312 min |
| 0.95 nM | 4.88 nM | CNC(=O)c1ccc(N2CCN(Cc3cc4[nH]c(=O)c(C)nc4cc3OC)CC2)c(Cl)n1 [Compound 37, 6-chloro-5-(4-((7-methoxy-2-methyl-3-oxo-3,4-dihydroquinoxalin-6-yl)methyl)piperazin-1-yl)-N-methylpicolinamide] |  |
|  | 6.49 nM | CNC(=O)c1ccc(N2CCN(Cc3cc4[nH]c(=O)c(C)nc4cc3OC)CC2)c(C)n1 [Compound 41, 5-(4-((7-methoxy-2-methyl-3-oxo-3,4-dihydroquinoxalin-6-yl)methyl)piperazin-1-yl)-N,6-dimethylpicolinamide] |  |
|  | 4.02 nM | CCc1nc2c(F)cc(CN3CCN(c4ccc(C(=O)NC5COC5)nc4C)CC3)cc2[nH]c1=O [Compound 42, 5-(4-((2-ethyl-8-fluoro-3-oxo-3,4-dihydroquinoxalin-6-yl)methyl)piperazin-1-yl)-6-methyl-N-(oxetan-3-yl)picolinamide] |  |
|  | 8.38 nM | Cc1nc(C(=O)N[C@@H]2CCOC2)ccc1N1CCN(Cc2cc(F)c3nc(C)c(=O)[nH]c3c2)CC1 [Compound 46, (R)-5-(4-((8-fluoro-2-methyl-3-oxo-3,4-dihydroquinoxalin-6-yl)methyl)piperazin-1-yl)-6-methyl-N-(tetrahydrofuran-3-yl)picolinamide] |  |
| 1.31 nM | 1.05 nM | CNC(=O)c1ccc(N2CCN(Cc3cc(Cl)c4nc(C)c(=O)[nH]c4c3)CC2)c(C)n1 [Compound 51, 5-(4-((8-chloro-2-methyl-3-oxo-3,4-dihydroquinoxalin-6-yl)methyl)piperazin-1-yl)-N,6-dimethylpicolinamide] |  |
|  | 4.97 nM | Cc1nc(C(=O)NCCF)ccc1N1CCN(Cc2cc3[nH]c(=O)c(C)nc3c(F)c2F)CC1 [Compound 54, 5-(4-((7,8-difluoro-2-methyl-3-oxo-3,4-dihydroquinoxalin-6-yl)methyl)piperazin-1-yl)-N-(2-fluoroethyl)-6-methylpicolinamide] |  |

Reference: US20250346573A1, “AZAQUINOLINONE DERIVATIVE, PREPARATION METHOD THEREFOR AND USE THEREOF” (CHENGDU EASTON BIOPHARMACEUTICALS CO., LTD., priority 2022, published 2025)
